Assay results taken from patent US20260028354A1, “TETRAHYDRONAPHTHALENE DERIVATIVES AS ESTROGEN RECEPTOR DEGRADERS” (REGENT OF THE UNIVERSITY OF MICHIGAN, priority 2022, published 2026).
Read-outs that look alike come from different tables or passages of the source.

Assays:
CRBN/DDB1 = CRBN/DDB1 (Homo sapiens (Human), UniProt Q96SW2); type: binding; settings: His tagged CRBN+DDB1, Cy5-labeled Thalidomide probe, one hour; read-out: CRBN HTRF IC50
Experimental: The binding potency was determined using HTRF assay technology (Perkin Elmer). Compounds were serially diluted in DMSO and […] volume was transferred to white 384-well plate.

ER in T47D cells = ER in T47D cells (Homo sapiens (Human), UniProt P03372); assay: In-cell Western (ICW) ER degradation assay in T47D cells; type: cell-based; settings: for DC50: ER degradation
T47D cells = assay: CellTiter-Glo (CTG) cell proliferation assay in T47D cells; type: cell-based; settings: Homo sapiens, 144 h, Day 6
Text: (§1) CellTiter-Glo® (CTG) Assays in MCF-7 and T47D Cell Lines.
(§2) In vitro Assay: MCF-7 and T47D CTG assay

MCF-7 cells = assay: CellTiter-Glo (CTG) cell proliferation assay in MCF-7 cells; type: cell-based; settings: Homo sapiens, MCF7, 144 h, MCF-7 cell proliferation, Day 6
Text: as §1, §2

ER in MCF-7 cells = ER in MCF-7 cells (Homo sapiens (Human), UniProt P03372); assay: In-cell Western (ICW) ER degradation assay in MCF-7 cells; type: cell-based; settings: for DC50: MCF-7, ER degradation, read-out: MCF7 DC50
ERα_LBD (GST) = ERα_LBD (GST) (Homo sapiens (Human), UniProt P03372); assay: IC50 measurements for binding to ERα_LBD (GST), LanthaScreen TR-FRET competitive binding; settings: ERα_LBD (GST) 4 nM, Fluormone ES2 Green tracer, 60 min; read-out: ERα HTRF IC50
Summary of the method: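 Competitive TR-FRET displacement of Fluormone ES2 Green tracer (3 nM) from GST-tagged human ERα LBD (4 nM) with Tb anti-GST (2 nM), in nuclear receptor buffer K plus 5 mM DTT, 1% DMSO. 60 min at room temperature, dark; 520/495 nm ratio vs log[compound] fitted sigmoidally for IC50.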

[1] = read-out: T47D Dmax, T47D, maximal ER degradation, 16 hrs treatment
[2] = MCF7, read-out: MCF7 Dmax, MCF-7, maximal ER degradation, 16 hrs treatment
[3] = maximal ER degradation, 16 hrs treatment, read-out: T47D Dmax
[4] = MCF7, MCF-7, maximal ER degradation, 16 hrs treatment, read-out: MCF7 Dmax

Sequence of ER in MCF-7 cells (P03372 whole entry): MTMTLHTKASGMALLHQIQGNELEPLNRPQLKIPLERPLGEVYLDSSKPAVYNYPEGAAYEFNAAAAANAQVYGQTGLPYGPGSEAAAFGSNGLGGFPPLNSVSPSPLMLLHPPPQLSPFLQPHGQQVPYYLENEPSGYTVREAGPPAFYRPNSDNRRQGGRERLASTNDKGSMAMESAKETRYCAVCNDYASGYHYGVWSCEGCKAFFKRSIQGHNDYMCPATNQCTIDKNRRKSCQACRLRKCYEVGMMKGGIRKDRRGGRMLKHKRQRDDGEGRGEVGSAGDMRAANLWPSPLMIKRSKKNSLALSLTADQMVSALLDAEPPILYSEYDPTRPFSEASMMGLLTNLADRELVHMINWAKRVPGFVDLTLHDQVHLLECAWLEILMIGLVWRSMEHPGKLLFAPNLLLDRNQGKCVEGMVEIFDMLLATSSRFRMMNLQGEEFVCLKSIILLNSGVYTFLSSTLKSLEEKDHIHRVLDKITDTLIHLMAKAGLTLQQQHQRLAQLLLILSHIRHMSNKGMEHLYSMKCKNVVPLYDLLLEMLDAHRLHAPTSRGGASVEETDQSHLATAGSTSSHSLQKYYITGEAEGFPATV
Sequence of ER in T47D cells (P03372 whole entry): as above
Sequence of CRBN/DDB1 (Q96SW2 whole entry, species assumed): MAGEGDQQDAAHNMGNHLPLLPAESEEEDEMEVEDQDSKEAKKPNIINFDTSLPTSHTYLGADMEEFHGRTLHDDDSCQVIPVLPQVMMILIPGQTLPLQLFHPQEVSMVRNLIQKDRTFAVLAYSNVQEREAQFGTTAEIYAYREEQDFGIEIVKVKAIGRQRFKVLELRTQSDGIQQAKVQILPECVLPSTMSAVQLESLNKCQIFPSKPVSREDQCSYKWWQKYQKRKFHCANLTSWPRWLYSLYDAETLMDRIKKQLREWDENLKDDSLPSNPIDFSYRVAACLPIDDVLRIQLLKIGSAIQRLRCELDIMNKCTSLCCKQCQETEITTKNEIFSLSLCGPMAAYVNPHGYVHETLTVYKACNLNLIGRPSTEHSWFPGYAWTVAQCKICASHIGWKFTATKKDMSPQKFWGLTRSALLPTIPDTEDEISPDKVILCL
Sequence of CRBN/DDB1 (Q16531 whole entry partner, species assumed): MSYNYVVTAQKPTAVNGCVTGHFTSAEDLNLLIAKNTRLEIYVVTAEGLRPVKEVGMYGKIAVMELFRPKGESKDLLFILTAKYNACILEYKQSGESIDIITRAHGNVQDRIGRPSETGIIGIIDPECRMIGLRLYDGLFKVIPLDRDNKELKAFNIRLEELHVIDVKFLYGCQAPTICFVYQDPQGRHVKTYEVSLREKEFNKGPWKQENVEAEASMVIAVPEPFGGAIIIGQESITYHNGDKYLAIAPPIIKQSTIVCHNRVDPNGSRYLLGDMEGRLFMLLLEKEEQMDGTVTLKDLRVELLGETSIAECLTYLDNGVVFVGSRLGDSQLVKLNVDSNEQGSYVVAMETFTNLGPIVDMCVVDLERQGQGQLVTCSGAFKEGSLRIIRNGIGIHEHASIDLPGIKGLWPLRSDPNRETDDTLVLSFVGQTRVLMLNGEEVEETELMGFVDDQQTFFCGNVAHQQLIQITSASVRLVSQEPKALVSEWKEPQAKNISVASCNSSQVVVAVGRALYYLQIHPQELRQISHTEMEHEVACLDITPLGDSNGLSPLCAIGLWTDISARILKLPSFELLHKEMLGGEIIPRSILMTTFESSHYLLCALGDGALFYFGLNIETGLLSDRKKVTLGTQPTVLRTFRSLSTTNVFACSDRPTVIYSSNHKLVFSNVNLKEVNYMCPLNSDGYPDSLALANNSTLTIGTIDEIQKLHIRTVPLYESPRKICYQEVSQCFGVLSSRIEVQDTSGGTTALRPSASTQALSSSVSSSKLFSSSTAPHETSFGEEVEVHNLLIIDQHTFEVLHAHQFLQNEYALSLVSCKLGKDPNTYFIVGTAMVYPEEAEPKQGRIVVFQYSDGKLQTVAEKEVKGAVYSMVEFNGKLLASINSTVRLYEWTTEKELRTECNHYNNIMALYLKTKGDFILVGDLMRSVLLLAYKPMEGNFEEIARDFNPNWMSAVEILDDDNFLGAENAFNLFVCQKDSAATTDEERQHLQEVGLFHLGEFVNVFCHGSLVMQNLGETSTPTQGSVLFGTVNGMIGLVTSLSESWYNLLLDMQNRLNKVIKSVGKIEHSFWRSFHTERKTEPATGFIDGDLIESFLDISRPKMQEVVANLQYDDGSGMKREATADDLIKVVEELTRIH
Sequence of ERα_LBD (GST) (P03372 311-547): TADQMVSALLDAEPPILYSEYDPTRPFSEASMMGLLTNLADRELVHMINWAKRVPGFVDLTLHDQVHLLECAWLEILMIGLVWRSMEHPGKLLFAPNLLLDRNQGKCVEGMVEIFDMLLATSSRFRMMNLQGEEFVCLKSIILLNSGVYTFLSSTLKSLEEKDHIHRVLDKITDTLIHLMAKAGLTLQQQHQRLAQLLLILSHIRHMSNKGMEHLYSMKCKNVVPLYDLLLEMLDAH

SMILES	IC50 (CRBN/DDB1)	DC50 (ER in T47D cells; 16 hrs treatment)	Dmax (ER in T47D cells; [1])	IC50 (T47D cells)	IC50 (MCF-7 cells)	Dmax (ER in MCF-7 cells; [2])	DC50 (ER in MCF-7 cells; 16 hrs treatment)	IC50 (ERα_LBD (GST))	Dmax (ER in T47D cells; [3])	Dmax (ER in MCF-7 cells; [4])
COc1cc(N2CCC3(CC2)CC(CN2CCC4(CC2)COc2c4ccc4c2CN([C@H]2CCC(=O)NC2=O)C4=O)C3)c(F)cc1[C@@H]1c2ccc(O)cc2CC[C@@H]1c1ccccc1 [Compound A100, (S)-3-(1′-((7-(2-fluoro-4-((1S,2S)-6-hydroxy-2-phenyl-1,2,3,4-tetrahydronaphthalen-1-yl)-5-methoxyphenyl)-7-azaspiro[3.5]nonan-2-yl)methyl)-6-oxo-6,8-dihydro-2H,7H-spiro[furo[2,3-e]isoindole-3,4′-piperidin]-7-yl)piperidine-2,6-dione]	< 50 nM	< 1 nM	> 75%	< 10 nM	< 10 nM	> 75%	< 1 nM	< 10 nM	–	–
COc1cc(N2CCC3(CC2)C[C@@H](CN2CCN4c5cc6c(cc5OC[C@@H]4C2)C(=O)N([C@H]2CCC(=O)NC2=O)C6)CO3)ccc1[C@@H]1c2ccc(O)cc2CC[C@@H]1c1ccccc1 (single isomer, unassigned) [Compound A136]	500 to 5000 nM	< 1 nM	–	< 10 nM	< 10 nM	–	< 1 nM	< 10 nM	> 75%	> 75%
O=C1CC[C@H](N2Cc3c(ccc4c3OC[C@H]3CN(CC5COC6(C5)CN(c5ccc([C@H]7c8ccc(O)cc8CC[C@H]7c7ccccc7)cc5)C6)CCN43)C2=O)C(=O)N1 (single isomer, unassigned) [Compound A41]	< 50 nM	< 1 nM	–	< 10 nM	< 10 nM	–	< 1 nM	< 10 nM	> 75%	> 75%
COc1cc(N2CCC3(CC2)C[C@H](CN2CCC4(CC2)COc2c4ccc4c2CN([C@H]2CCC(=O)NC2=O)C4=O)CO3)c(F)cc1[C@@H]1c2ccc(O)cc2CC[C@@H]1c1ccccc1 [Compound A176]	–	< 1 nM	> 75%	< 10 nM	< 10 nM	> 75%	< 1 nM	< 10 nM	–	–
O=C1CC[C@H](N2Cc3cc4c(cc3C2=O)OC[C@@H]2CN(CC3COC5(C3)CN(c3ccc([C@H]6c7ccc(O)cc7CC[C@H]6c6ccccc6)cc3)C5)CCN42)C(=O)N1 (single isomer, unassigned) [Compound A43]	50 to 500 nM	< 1 nM	–	10 to 100 nM	10 to 100 nM	–	< 1 nM	< 10 nM	> 75%	50 to 75%
COc1cc(N2CCC(CN3CCN4c5ccc6c(c5OCC4C3)CN([C@H]3CCC(=O)NC3=O)C6=O)CC2)c(F)cc1[C@@H]1c2ccc(O)cc2CC[C@@H]1c1ccccc1 (stereo in doubt) [Compound A35, (S)-3-((S)-7-((1-(2-fluoro-4-((1S,2S)-6-hydroxy-2-phenyl-1,2,3,4-tetrahydronaphthalen-1-yl)-5-methoxyphenyl)piperidin-4-yl)methyl)-1-oxo-1,3,5,5a,6,7,8,9-oCtahydro-2H-pyrazino[1′,2′: 4,5][1,4]oxazino[2,3-e]isoindol-2-yl)piperidine-2,6-dione]	–	< 1 nM	–	10 to 100 nM	10 to 100 nM	> 75%	< 1 nM	< 10 nM	> 75%	–
COc1cc(N2CCC3(CC2)C[C@H](CN2CCN4c5cc6c(cc5OC[C@@H]4C2)C(=O)N([C@H]2CCC(=O)NC2=O)C6)CO3)ccc1[C@@H]1c2ccc(O)cc2CC[C@@H]1c1ccccc1 (single isomer, unassigned) [Compound A135]	500 to 5000 nM	< 1 nM	–	< 10 nM	< 10 nM	–	< 1 nM	< 10 nM	–	> 75%
COc1cc(N2CCC3(CC2)C[C@H](CN2CCN4c5ccc6c(c5OC[C@H]4C2)CN([C@H]2CCC(=O)NC2=O)C6=O)CO3)c(F)cc1[C@@H]1c2ccc(O)cc2CC[C@@H]1c1ccccc1 [Compound A174, (S)-3-((R)-7-(((R)-8-(2-fluoro-4-((1S,2S)-6-hydroxy-2-phenyl-1,2,3,4-tetrahydronaphthalen-1-yl)-5-methoxyphenyl)-1-oxa-8-azaspiro[4.5]decan-3-yl)methyl)-1-oxo-1,3,5,5a,6,7,8,9-octahydro-2H-pyrazino[1′,2′:4,5][1,4]oxazino[2,3-e]isoindol-2-yl)piperidine-2,6-dione]	–	< 1 nM	–	< 10 nM	< 10 nM	–	< 1 nM	< 10 nM	> 75%	> 75%
COc1cc(N2CCC(CN3CCN4c5cc6c(cc5OC[C@H]4C3)C(=O)N([C@@H]3CCC(=O)NC3=O)C6)CC2)ccc1[C@H]1c2ccc(O)cc2CC[C@H]1c1ccccc1 (stereo in doubt) [Compound A34, (R)-3-((R)-3-((1-(4-((1R,2R)-6-hydroxy-2-phenyl-1,2,3,4-tetrahydronaphthalen-1-yl)-3-methoxyphenyl)piperidin-4-yl)methyl)-8-oxo-1,2,3,4,4a,5,8,10-octahydro-9H-pyrazino[1′,2′: 4,5][1,4]oxazino[2,3-f]isoindol-9-yl)piperidine-2,6-dione]	–	< 1 nM	–	< 10 nM	< 10 nM	> 75%	< 1 nM	–	> 75%	–
COc1cc(N2CCC3(CC2)CC(CN2CCC(c4ccc(N[C@@H]5CCC(=O)NC5=O)cc4)CC2)C3)c(F)cc1[C@@H]1c2ccc(O)cc2CC[C@@H]1c1ccccc1 (single isomer, unassigned) [Compound A31]	–	< 1 nM	–	> 100 nM	10 to 100 nM	–	< 1 nM	< 10 nM	> 75%	50 to 75%
COc1cc(N2CCC3(CC2)C[C@H](CN2CCN4c5cc6c(cc5OC[C@@H]4C2)C(=O)N([C@H]2CCC(=O)NC2=O)C6)CO3)c(F)cc1[C@@H]1c2ccc(O)cc2CC[C@@H]1c1ccccc1 [Compound A173, (S)-3-((S)-3-(((R)-8-(2-fluoro-4-((1S,2S)-6-hydroxy-2-phenyl-1,2,3,4-tetrahydronaphthalen-1-yl)-5-methoxyphenyl)-1-oxa-8-azaspiro[4.5]decan-3-yl)methyl)-8-oxo-1,2,3,4,4a,5,8,10-octahydro-9H-pyrazino[1′,2′:4,5][1,4]oxazino[2,3-f]isoindol-9-yl)piperidine-2,6-dione]	–	< 1 nM	–	< 10 nM	< 10 nM	–	< 1 nM	< 10 nM	> 75%	> 75%
COc1cc(N2CCC3(CC2)C[C@H](CN2CCC4(CC2)COc2cc5c(cc24)CN([C@H]2CCC(=O)NC2=O)C5=O)CO3)c(F)cc1[C@@H]1c2ccc(O)cc2CC[C@@H]1c1ccccc1 [Compound A175, (S)-3-(1′-(((R)-8-(2-fluoro-4-((1S,2S)-6-hydroxy-2-phenyl-1,2,3,4-tetrahydronaphthalen-1-yl)-5-methoxyphenyl)-1-oxa-8-azaspiro[4.5]decan-3-yl)methyl)-7-oxo-5,7-dihydro-2H,6H-spiro[furo[2,3-f]isoindole-3,4′-piperidin]-6-yl)piperidine-2,6-dione]	–	< 1 nM	> 75%	< 10 nM	< 10 nM	> 75%	< 1 nM	< 10 nM	–	–
O=C1CC[C@H](N2Cc3cc4c(cc3C2=O)OC[C@@H]2CN(C[C@H]3COC5(C3)CN(c3ccc([C@@H]6c7ccc(O)cc7CC[C@@H]6c6ccccc6)cc3)C5)CCN42)C(=O)N1 [Compound A72, (S)-3-((S)-3-(((S)-2-(4-((1R, 2S)-6-hydroxy-2-phenyl-1,2,3,4-tetrahydronaphthalen-1-yl)phenyl)-5-oxa-2-azaspiro [3.4]octan-7-yl)methyl)-8-oxo-1,2,3,4,4a,5,8,10-octahydro-9H-pyrazino[1′,2′:4,5][1,4]oxazino[2,3-f]isoindol-9-yl)-piperidine-2,6-dione]	50 to 500 nM	< 1 nM	–	–	< 10 nM	–	< 1 nM	< 10 nM	> 75%	50 to 75%
